Results published in the supplement of paper PMC11919725.

Tests used:
[1] = test system: Jurkat; assay: cytotoxicity relative to DMSO, 18 h (ratio); higher = less cell death (drugs called cytotoxic fall below 1)
How it was run: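 Jurkat or primary CD4+/CD8+ T cells (naive, or activated 48 h with CD3/CD28 Dynabeads) were treated 18 h with compound at 1 nM–10 µM (log10 steps) at 37 °C, 5% CO2. Then 100 µl of suspension went into 96-well plates with IncuCyte Cytotox Dye (250 nM final). Cytotoxicity came from IncuCyte fluorescence imaging (×10, five images per well, hourly over 3 h). Signals were corrected for confluency, then normalised to mean DMSO controls.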

[2] = test system: Jurkat; assay: metabolic activity relative to DMSO, 18 h (ratio); higher = more viable
How it was run: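 Jurkat or primary CD4+/CD8+ T cells (naive, or activated 48 h with CD3/CD28 Dynabeads) were treated 18 h with compound at 1 nM–10 µM (log10 steps) at 37 °C, 5% CO2. Then 100 µl of suspension went into 96-well plates with alamarBlue (10% v/v final). After 3.5 h, fluorescence was read on a FluoStar Omega (excitation 544 nm, emission 584 nm). Metabolic activity is normalised to mean DMSO controls.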

[3] = test system: Jurkat; assay: confluency relative to DMSO, 18 h (ratio); higher = more viable
How it was run: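 Jurkat cells and primary CD4+/CD8+ T cells, naive or activated with CD3/CD28 Dynabeads for 48 h, were treated with compound (1 nM–10 µM, log10 steps) for 18 h at 37 °C. Following transfer of 100 µl into 96-well plates with IncuCyte Cytotox Dye and alamarBlue, wells were imaged at ×10, five images per well, each hour for 3 h. Confluency, obtained with the IncuCyte Basic Analyzer from phase-contrast images, is normalised to the mean of the control wells.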

| SMILES | cytotoxicity ([1]; 1 nM) | cytotoxicity ([1]; 10 nM) | cytotoxicity ([1]; 100 nM) | cytotoxicity ([1]; 1000 nM) | cytotoxicity ([1]; 10000 nM) | metabolic activity ([2]; 1 nM) | metabolic activity ([2]; 10 nM) | metabolic activity ([2]; 100 nM) | metabolic activity ([2]; 1000 nM) | metabolic activity ([2]; 10000 nM) | confluency ([3]; 1 nM) | confluency ([3]; 10 nM) | confluency ([3]; 100 nM) | confluency ([3]; 1000 nM) | confluency ([3]; 10000 nM) |
| --- | --- | --- | --- | --- | --- | --- | --- | --- | --- | --- | --- | --- | --- | --- | --- |
| Nc1cccc2c1C(=O)N(C1CCC(=O)NC1=O)C2=O (stereo not given) [Pomalidomide] | 1.04 | 0.986 | 0.512 | 1.03 | 0.936 | 0.995 | 1.01 | 1.04 | 1.12 | 1.09 | 0.955 | 0.902 | 0.943 | 0.948 | 0.94 |
| CC12C=CC(=O)C=C1CCC1C2C(=O)CC2(C)C1CCC2(O)C(=O)CO (stereo not given) [Prednisone] | 0.964 | 1.01 | 1.02 | 1.05 | 1.21 | 0.872 | 0.991 | 1.07 | 1.04 | 1.15 | 1.01 | 0.981 | 0.993 | 1.01 | 1.02 |
| Cn1cc(CNCC2CCN(c3ncc(C(=O)NO)cn3)CC2)c2ccccc21 [Quisinostat] | 0.816 | 1.07 | 0.897 | 0.958 | 0.908 | 0.876 | 1.04 | 0.875 | 0.688 | 0.667 | 0.847 | 0.918 | 0.963 | 1.02 | 0.957 |
| COc1ccc(F)c(F)c1C(=O)c1cnc(NC2CCN(S(C)(=O)=O)CC2)nc1N [R-547] | 1.01 | 0.934 | 1.08 | 1.04 | 1.04 | 1.09 | 1.02 | 1 | 0.739 | 0.134 | 1.07 | 1.18 | 1.04 | 1.04 | 1.01 |
| COC1CC2CCC(C)C(O)(O2)C(=O)C(=O)N2CCCCC2C(=O)OC(C(C)CC2CCC(O)C(OC)C2)CC(=O)C(C)C=C(C)C(O)C(OC)C(=O)C(C)CC(C)C=CC=CC=C1C (stereo not given) [Rapamycin] | 0.973 | 1.02 | 1.05 | 0.913 | 0.831 | 0.859 | 0.948 | 0.789 | 0.77 | 0.742 | 1.01 | 0.98 | 0.933 | 0.902 | 0.81 |
| Cn1nccc1Nc1nccc(-c2ccn(C(CO)c3ccc(Cl)c(F)c3)c(=O)c2)n1 (stereo not given) [Ravoxertinib] | 1.1 | 0.921 | 1 | 0.983 | 1.02 | 0.977 | 0.997 | 1.04 | 1.07 | 1.1 | 0.989 | 0.841 | 0.884 | 0.894 | 0.886 |
| CN(C)C(=O)c1cc2cnc(Nc3ccc(N4CCNCC4)cn3)nc2n1C1CCCC1 [Ribociclib] | 0.914 | 0.883 | 1.01 | 0.984 | 1.06 | 0.887 | 0.874 | 0.862 | 0.879 | 0.856 | 1 | 0.964 | 1.09 | 1.06 | 1.14 |
| O=C(CCCCCCNC(=O)c1cnc(N(c2ccccc2)c2ccccc2)nc1)NO [Ricolinostat] | 1.01 | 0.933 | 1.07 | 0.969 | 0.881 | 0.874 | 0.881 | 0.933 | 0.841 | 0.655 | 1.01 | 1 | 1.03 | 0.976 | 0.984 |
| COc1cc(OC)c(C=CS(=O)(=O)Cc2ccc(OC)c(NCC(=O)O)c2)c(OC)c1 [Rigosertib] | 0.92 | 0.988 | 0.948 | 0.711 | 0.621 | 1.01 | 1.01 | 0.87 | 0.426 | 0.468 | 1.02 | 1.01 | 1.01 | 0.871 | 0.797 |
| CN1CCC(c2c(O)cc(O)c3c(=O)cc(-c4ccccc4Cl)oc23)C1CO (stereo not given) [Riviciclib] | 0.627 | 0.605 | 1 | 0.783 | 1.04 | 1.04 | 0.872 | 0.754 | 0.6 | 0.242 | 1.07 | 1.04 | 0.985 | 0.866 | 1.03 |
| CC=C1NC(=O)C2CSSCCC=CC(CC(=O)NC(C(C)C)C(=O)N2)OC(=O)C(C(C)C)NC1=O (stereo not given) [Romidepsin] | 0.904 | 0.961 | 0.914 | 1.03 | 1.06 | 1.1 | 0.839 | 0.703 | 0.539 | 0.042 | 0.987 | 1.07 | 1.02 | 1 | 1.03 |
| CNCc1ccc(-c2[nH]c3cc(F)cc4c3c2CCNC4=O)cc1 [Rucaparib] | 1.06 | 1 | 1.04 | 1.07 | 0.899 | 0.926 | 0.952 | 0.981 | 0.996 | 0.973 | 1.06 | 1.03 | 1.04 | 1.07 | 0.931 |
